Measurements published in article PMC4917279 (Journal of Medicinal Chemistry, 2016).
Entries after “also recorded” stand apart in the source; their conditions may differ.

Legend:
[1] = system: KYSE-150, U2OS, and A2780 cell lines; assay: Caspase 3/7 activation assay; format: cell-based
Description: Effects on apoptosis induction were measured with the Caspase-Glo 3/7 Assay System (Promega).

[2] = molecular target: T1, AAK1 (Homo sapiens, UniProt Q2M2I8); assay: KINOMEscan; format: binding; conditions: read-out: %Ctrl @ 1000 nM
T1 construct: purchased DiscoveRx (KINOMEscan service)

[3] = molecular target: T2, ABL1(F317L)-nonphosphorylated (Homo sapiens, UniProt P00519, F317L); assay: KINOMEscan; format: binding; conditions: read-out: %Ctrl @ 1000 nM
T2 construct: purchased DiscoveRx (KINOMEscan service)

[4] = molecular target: T3, ADCK3 (Homo sapiens, UniProt Q8NI60); assay: KINOMEscan; format: binding; conditions: read-out: %Ctrl @ 1000 nM
T3 construct: purchased DiscoveRx KINOMEscan

[5] = molecular target: T4, AMPK-alpha1 (Homo sapiens, UniProt Q13131); assay: KINOMEscan; format: binding; conditions: read-out: %Ctrl @ 1000 nM
T4 construct: purchased DiscoveRx KINOMEscan

[6] = molecular target: T5, AURKC (Homo sapiens, UniProt Q9UQB9); assay: KINOMEscan; format: binding; conditions: read-out: %Ctrl @ 1000 nM
T5 construct: purchased DiscoveRx KINOMEscan

[7] = molecular target: T6, CHEK2 (Homo sapiens, UniProt O96017); assay: KINOMEscan; format: binding; conditions: read-out: %Ctrl @ 1000 nM
T6 construct: purchased DiscoveRx KINOMEscan

[8] = molecular target: T7, CIT (Homo sapiens, UniProt O14578); assay: KINOMEscan; format: binding; conditions: read-out: %Ctrl @ 1000 nM
T7 construct: purchased DiscoveRx KINOMEscan

[9] = molecular target: T8, ERK4 (Homo sapiens, UniProt P31152); assay: KINOMEscan; format: binding; conditions: read-out: %Ctrl @ 1000 nM
T8 construct: purchased DiscoveRx KINOMEscan

[10] = molecular target: T9, FLT3(R834Q) (Homo sapiens, UniProt P36888, R834Q); assay: KINOMEscan; format: binding; conditions: read-out: %Ctrl @ 1000 nM
T9 construct: purchased DiscoveRx KINOMEscan

[11] = molecular target: T10, HIPK1 (Homo sapiens, UniProt Q86Z02); assay: KINOMEscan; format: binding; conditions: read-out: %Ctrl @ 1000 nM
T10 construct: purchased DiscoveRx KINOMEscan

[12] = molecular target: T11, HPK1 (Homo sapiens, UniProt Q92918); assay: KINOMEscan; format: binding; conditions: read-out: %Ctrl @ 1000 nM
T11 construct: purchased DiscoveRx KINOMEscan

[13] = molecular target: T12, JAK2(JH1domain-catalytic) (Homo sapiens, UniProt O60674); assay: KINOMEscan; format: binding; conditions: read-out: %Ctrl @ 1000 nM
T12 construct: JAK2(JH1domain-catalytic); purchased DiscoveRx KINOMEscan

[14] = molecular target: T13, JNK1 (Homo sapiens, UniProt P45983); assay: KINOMEscan; format: binding; conditions: read-out: %Ctrl @ 1000 nM
T13 construct: purchased DiscoveRx KINOMEscan

[15] = molecular target: T14, LATS1 (Homo sapiens, UniProt O95835); assay: KINOMEscan; format: binding; conditions: read-out: %Ctrl @ 1000 nM
T14 construct: purchased DiscoveRx KINOMEscan

[16] = molecular target: T15, LCK (Homo sapiens, UniProt P06239); assay: KINOMEscan; format: binding; conditions: read-out: %Ctrl @ 1000 nM
T15 construct: purchased DiscoveRx KINOMEscan

[17] = molecular target: T16, LRRK2 (Homo sapiens, UniProt Q5S007); assay: KINOMEscan; format: binding; conditions: read-out: %Ctrl @ 1000 nM
T16 construct: purchased DiscoveRx KINOMEscan

[18] = molecular target: T17, MAP4K3 (Homo sapiens, UniProt Q8IVH8); assay: KINOMEscan; format: binding; conditions: read-out: %Ctrl @ 1000 nM
T17 construct: purchased DiscoveRx KINOMEscan

[19] = molecular target: T18, MEK1 (Homo sapiens, UniProt Q02750); assay: KINOMEscan; format: binding; conditions: read-out: %Ctrl @ 1000 nM
T18 construct: purchased DiscoveRx KINOMEscan

[20] = molecular target: T19, MEK5 (Homo sapiens, UniProt Q13163); assay: KINOMEscan; format: binding; conditions: read-out: %Ctrl @ 1000 nM
T19 construct: purchased DiscoveRx KINOMEscan

[21] = molecular target: T20, MET (Homo sapiens, UniProt P08581); assay: KINOMEscan; format: binding; conditions: read-out: %Ctrl @ 1000 nM
T20 construct: purchased DiscoveRx KINOMEscan

[22] = molecular target: T21, MST1 (Homo sapiens, UniProt Q13043); assay: KINOMEscan; format: binding; conditions: read-out: %Ctrl @ 1000 nM
T21 construct: purchased DiscoveRx KINOMEscan

[23] = molecular target: T22, NDR2 (Homo sapiens, UniProt Q9Y2H1); assay: KINOMEscan; format: binding; conditions: read-out: %Ctrl @ 1000 nM
T22 construct: purchased DiscoveRx KINOMEscan

[24] = molecular target: T23, NEK7 (Homo sapiens, UniProt Q8TDX7); assay: KINOMEscan; format: binding; conditions: read-out: %Ctrl @ 1000 nM
T23 construct: purchased DiscoveRx KINOMEscan

[25] = molecular target: T24, NIM1 (Homo sapiens, UniProt Q8IY84); assay: KINOMEscan; format: binding; conditions: read-out: %Ctrl @ 1000 nM
T24 construct: purchased DiscoveRx KINOMEscan

[26] = molecular target: T25, PFPK5(P.falciparum) (Plasmodium falciparum, UniProt P61075); assay: KINOMEscan; format: binding; conditions: read-out: %Ctrl @ 1000 nM
T25 construct: purchased DiscoveRx KINOMEscan

[27] = molecular target: T26, PIK3CA(E545K) (Homo sapiens, UniProt P42336, E545K); assay: KINOMEscan; format: binding; conditions: read-out: %Ctrl @ 1000 nM
T26 construct: purchased DiscoveRx KINOMEscan

[28] = molecular target: T27, PIM2 (Homo sapiens, UniProt Q9P1W9); assay: KINOMEscan; format: binding; conditions: read-out: %Ctrl @ 1000 nM
T27 construct: purchased DiscoveRx KINOMEscan

[29] = molecular target: T28, PRKCE (Homo sapiens, UniProt Q02156); assay: KINOMEscan; format: binding; conditions: read-out: %Ctrl @ 1000 nM
T28 construct: purchased DiscoveRx KINOMEscan

[30] = molecular target: T29, PRKD2 (Homo sapiens, UniProt Q9BZL6); assay: KINOMEscan; format: binding; conditions: read-out: %Ctrl @ 1000 nM
T29 construct: purchased DiscoveRx KINOMEscan

[31] = molecular target: T30, PRKG1 (Homo sapiens, UniProt Q13976); assay: KINOMEscan; format: binding; conditions: read-out: %Ctrl @ 1000 nM
T30 construct: purchased DiscoveRx KINOMEscan

[32] = molecular target: T31, RET(M918T) (Homo sapiens, UniProt P07949, M918T); assay: KINOMEscan; format: binding; conditions: read-out: %Ctrl @ 1000 nM
T31 construct: purchased DiscoveRx KINOMEscan

[33] = molecular target: T32, ROCK1 (Homo sapiens, UniProt Q13464); assay: KINOMEscan; format: binding; conditions: read-out: %Ctrl @ 1000 nM
T32 construct: purchased DiscoveRx KINOMEscan

[34] = molecular target: RPS6KA4(Kin.Dom.2-C-terminal) (Homo sapiens, UniProt O75676); assay: KINOMEscan; format: binding; conditions: read-out: %Ctrl @ 1000 nM
[35] = molecular target: T33, RPS6KA5(Kin.Dom.1-N-terminal) (Homo sapiens, UniProt O75582); assay: KINOMEscan; format: binding; conditions: read-out: %Ctrl @ 1000 nM
T33 construct: RPS6KA5(Kin.Dom.1-N-terminal); purchased DiscoveRx KINOMEscan

[36] = molecular target: T34, RSK4(Kin.Dom.2-C-terminal) (Homo sapiens, UniProt Q9UK32); assay: KINOMEscan; format: binding; conditions: read-out: %Ctrl @ 1000 nM
T34 construct: RSK4(Kin.Dom.2-C-terminal); purchased DiscoveRx KINOMEscan

[37] = molecular target: T35, WEE2 (Homo sapiens, UniProt P0C1S8); assay: KINOMEscan; format: binding; conditions: read-out: %Ctrl @ 1000 nM
T35 construct: purchased DiscoveRx KINOMEscan

[38] = molecular target: T36, SMYD2 (Homo sapiens, UniProt Q9NRG4); assay: Ex vivo methylation detection by dot blot (AHNAK) in SMYD2-overexpressing KYSE-150 xenografts; set-up: expressed in transfected cells; species or system mouse; conditions: 3 days
[39] = molecular target: T36, SMYD2; assay: Endogenous p53 methylation in KYSE-150 cells (Western blot); conditions: 5 days

T36 sequence (Q9NRG4 whole entry): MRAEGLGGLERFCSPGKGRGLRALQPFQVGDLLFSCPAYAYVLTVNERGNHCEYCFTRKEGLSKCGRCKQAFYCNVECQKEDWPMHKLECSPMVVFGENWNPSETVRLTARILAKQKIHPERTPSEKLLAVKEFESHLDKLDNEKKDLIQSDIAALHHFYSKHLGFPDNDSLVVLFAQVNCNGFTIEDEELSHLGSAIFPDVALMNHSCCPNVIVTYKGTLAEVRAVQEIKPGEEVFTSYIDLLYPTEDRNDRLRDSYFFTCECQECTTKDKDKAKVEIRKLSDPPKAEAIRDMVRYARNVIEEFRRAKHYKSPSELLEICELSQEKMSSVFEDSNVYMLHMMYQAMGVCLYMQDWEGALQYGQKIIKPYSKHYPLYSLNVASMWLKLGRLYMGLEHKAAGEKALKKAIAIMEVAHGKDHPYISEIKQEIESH
T17 sequence (Q8IVH8 whole entry): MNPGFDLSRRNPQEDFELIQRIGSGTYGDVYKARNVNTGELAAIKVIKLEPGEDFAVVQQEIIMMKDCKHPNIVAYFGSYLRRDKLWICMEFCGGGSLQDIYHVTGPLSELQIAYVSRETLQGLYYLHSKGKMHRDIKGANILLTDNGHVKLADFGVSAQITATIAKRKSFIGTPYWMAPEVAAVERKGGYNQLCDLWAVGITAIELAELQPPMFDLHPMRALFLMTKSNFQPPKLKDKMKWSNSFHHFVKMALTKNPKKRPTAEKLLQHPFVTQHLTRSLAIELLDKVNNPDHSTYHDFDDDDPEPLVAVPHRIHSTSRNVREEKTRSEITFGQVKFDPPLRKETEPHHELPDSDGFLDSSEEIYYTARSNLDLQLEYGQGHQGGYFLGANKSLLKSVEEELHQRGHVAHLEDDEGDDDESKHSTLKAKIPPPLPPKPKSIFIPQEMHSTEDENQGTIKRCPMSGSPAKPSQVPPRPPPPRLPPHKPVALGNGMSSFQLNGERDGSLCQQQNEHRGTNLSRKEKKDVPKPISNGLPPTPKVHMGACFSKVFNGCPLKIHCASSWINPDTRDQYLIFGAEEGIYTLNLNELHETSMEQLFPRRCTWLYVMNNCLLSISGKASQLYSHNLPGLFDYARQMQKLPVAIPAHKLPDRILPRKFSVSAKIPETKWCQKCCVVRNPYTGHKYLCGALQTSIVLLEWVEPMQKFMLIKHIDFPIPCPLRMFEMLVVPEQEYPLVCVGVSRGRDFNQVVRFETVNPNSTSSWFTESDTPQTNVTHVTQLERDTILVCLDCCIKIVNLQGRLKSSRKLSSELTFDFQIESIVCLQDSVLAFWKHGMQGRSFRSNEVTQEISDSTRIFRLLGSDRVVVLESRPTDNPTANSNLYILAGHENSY
T13 sequence (P45983 whole entry): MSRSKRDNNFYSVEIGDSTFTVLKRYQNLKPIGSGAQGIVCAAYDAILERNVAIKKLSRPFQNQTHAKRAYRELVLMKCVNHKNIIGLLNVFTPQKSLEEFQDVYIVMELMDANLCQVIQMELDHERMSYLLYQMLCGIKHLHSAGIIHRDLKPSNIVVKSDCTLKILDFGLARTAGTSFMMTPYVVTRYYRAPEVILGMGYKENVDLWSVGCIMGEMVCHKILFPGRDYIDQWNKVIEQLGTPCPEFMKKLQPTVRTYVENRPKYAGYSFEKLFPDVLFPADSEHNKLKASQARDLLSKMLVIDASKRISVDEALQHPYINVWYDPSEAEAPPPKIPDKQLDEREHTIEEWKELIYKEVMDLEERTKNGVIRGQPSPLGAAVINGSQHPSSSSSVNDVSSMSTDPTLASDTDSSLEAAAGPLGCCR
T10 sequence (Q86Z02 whole entry): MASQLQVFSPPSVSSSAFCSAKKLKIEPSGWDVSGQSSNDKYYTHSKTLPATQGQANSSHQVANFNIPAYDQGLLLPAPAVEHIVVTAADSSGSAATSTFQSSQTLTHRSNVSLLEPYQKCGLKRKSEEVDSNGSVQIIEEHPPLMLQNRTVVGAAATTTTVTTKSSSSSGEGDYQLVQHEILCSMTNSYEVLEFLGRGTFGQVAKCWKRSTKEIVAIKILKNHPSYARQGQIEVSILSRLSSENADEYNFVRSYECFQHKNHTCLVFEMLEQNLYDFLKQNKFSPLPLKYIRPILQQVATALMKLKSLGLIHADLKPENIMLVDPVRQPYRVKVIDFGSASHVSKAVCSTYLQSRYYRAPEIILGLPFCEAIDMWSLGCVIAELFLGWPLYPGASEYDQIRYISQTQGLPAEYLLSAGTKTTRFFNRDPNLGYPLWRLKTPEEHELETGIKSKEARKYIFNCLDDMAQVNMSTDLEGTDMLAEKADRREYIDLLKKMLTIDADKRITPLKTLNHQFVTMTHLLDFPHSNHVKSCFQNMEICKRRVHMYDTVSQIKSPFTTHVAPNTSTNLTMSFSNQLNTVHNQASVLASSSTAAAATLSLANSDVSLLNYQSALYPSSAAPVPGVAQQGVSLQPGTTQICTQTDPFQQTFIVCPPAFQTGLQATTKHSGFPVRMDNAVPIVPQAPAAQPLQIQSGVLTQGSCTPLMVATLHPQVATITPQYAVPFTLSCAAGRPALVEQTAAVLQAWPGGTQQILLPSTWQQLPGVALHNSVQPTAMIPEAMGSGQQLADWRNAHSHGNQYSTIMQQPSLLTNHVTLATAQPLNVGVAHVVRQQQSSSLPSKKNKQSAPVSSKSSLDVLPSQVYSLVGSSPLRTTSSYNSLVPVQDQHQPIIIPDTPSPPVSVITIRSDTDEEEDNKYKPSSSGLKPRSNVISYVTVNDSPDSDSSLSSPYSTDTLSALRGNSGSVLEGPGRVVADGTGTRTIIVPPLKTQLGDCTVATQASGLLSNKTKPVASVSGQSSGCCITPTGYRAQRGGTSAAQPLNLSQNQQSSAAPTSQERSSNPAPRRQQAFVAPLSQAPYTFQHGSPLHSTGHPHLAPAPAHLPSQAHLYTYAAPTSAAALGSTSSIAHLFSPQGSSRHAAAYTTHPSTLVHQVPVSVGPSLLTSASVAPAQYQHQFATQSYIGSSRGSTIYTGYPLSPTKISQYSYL
T35 sequence (P0C1S8 whole entry): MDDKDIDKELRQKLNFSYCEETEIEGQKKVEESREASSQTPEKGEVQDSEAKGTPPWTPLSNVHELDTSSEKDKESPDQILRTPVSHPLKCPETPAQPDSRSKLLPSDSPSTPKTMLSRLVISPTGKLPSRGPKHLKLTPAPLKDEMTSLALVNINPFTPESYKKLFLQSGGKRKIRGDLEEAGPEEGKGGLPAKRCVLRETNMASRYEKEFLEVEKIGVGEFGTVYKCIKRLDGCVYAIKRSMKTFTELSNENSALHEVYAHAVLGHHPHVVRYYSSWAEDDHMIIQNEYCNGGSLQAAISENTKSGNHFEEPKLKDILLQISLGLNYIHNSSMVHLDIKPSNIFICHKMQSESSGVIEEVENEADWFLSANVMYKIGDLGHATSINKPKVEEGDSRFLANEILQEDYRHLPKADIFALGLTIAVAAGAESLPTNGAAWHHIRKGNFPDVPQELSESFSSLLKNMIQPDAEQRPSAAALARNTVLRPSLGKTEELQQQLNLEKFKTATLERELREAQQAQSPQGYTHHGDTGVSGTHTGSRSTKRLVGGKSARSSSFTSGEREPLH
T4 sequence (Q13131 whole entry): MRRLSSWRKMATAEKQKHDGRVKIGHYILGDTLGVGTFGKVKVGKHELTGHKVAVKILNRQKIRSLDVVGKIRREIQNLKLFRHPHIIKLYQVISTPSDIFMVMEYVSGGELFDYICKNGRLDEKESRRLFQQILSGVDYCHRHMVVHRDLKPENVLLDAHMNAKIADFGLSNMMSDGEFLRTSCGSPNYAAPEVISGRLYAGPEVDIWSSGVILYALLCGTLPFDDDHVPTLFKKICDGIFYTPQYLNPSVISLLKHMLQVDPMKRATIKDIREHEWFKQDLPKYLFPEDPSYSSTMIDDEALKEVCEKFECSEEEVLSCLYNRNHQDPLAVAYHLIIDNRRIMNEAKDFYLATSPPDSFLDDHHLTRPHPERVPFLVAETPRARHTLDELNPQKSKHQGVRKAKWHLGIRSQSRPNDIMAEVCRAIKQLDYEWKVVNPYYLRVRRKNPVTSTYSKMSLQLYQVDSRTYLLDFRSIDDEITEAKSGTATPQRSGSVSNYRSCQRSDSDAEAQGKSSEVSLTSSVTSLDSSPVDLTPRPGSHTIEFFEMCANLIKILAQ
T5 sequence (Q9UQB9 whole entry): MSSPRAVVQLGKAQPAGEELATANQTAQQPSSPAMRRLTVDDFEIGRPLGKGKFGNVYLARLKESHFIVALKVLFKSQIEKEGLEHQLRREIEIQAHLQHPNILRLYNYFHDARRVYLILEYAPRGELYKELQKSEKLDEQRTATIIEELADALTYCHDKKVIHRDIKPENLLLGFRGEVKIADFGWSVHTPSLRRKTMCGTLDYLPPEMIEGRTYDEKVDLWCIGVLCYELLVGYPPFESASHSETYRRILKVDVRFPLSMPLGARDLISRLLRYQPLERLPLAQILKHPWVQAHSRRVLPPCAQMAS
T15 sequence (P06239 whole entry): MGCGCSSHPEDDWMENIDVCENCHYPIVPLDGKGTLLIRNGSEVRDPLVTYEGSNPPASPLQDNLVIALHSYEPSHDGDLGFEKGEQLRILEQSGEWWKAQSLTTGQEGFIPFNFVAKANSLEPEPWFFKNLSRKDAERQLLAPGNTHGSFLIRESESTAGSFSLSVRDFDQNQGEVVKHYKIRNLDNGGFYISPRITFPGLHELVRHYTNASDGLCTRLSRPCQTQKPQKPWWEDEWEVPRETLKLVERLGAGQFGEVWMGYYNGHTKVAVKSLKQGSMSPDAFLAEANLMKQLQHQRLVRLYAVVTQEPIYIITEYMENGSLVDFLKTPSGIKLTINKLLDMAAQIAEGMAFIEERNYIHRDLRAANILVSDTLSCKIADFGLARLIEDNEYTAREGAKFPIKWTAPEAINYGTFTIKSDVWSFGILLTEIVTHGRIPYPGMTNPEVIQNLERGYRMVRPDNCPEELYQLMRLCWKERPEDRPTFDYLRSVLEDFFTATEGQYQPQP

Question: Which “Caspase 3/7 activation in combination with doxorubicin” value ([1]; 2 days pretreatment, then doxorubicin 24 h, KYSE-150, U2OS, A2780) does the source give for CCN(C(=O)CO)[C@H]1CN(/C(=N\C#N)Nc2cccc(OC(F)F)c2)N=C1c1ccc(Cl)c(Cl)c1 [(S)-4] here?
Answer: The value was “significantly improved; also recorded: significantly improving”.

Question: And the Apoptosis induction alone ([1]; without doxorubicin)?
Answer: The Apoptosis induction alone was “without inducing apoptosis alone”.

Question: And the remaining binding at 1 µM [2]?
Answer: The remaining binding at 1 µM was 78%.

Question: What about the remaining binding at 1 µM [3] of the same molecule?
Answer: Its remaining binding at 1 µM is 100%.

Question: And the remaining binding at 1 µM [4]?
Answer: Its remaining binding at 1 µM is 98%.

Question: What about the remaining binding at 1 µM [5] of the same molecule?
Answer: Its remaining binding at 1 µM is 68%.

Question: What about the remaining binding at 1 µM [6] of the same molecule?
Answer: The remaining binding at 1 µM was 77%.

Question: What about the remaining binding at 1 µM [7] of the same molecule?
Answer: The remaining binding at 1 µM was 99%.

Question: What about the remaining binding at 1 µM [8] of the same molecule?
Answer: Its remaining binding at 1 µM is 63%.

Question: What about the remaining binding at 1 µM [9] of the same molecule?
Answer: The remaining binding at 1 µM was 100%.

Question: What about the remaining binding at 1 µM [10] of the same molecule?
Answer: The remaining binding at 1 µM was 100%.

Question: What about the remaining binding at 1 µM [11] of the same molecule?
Answer: Its remaining binding at 1 µM is 51%.

Question: And the remaining binding at 1 µM [12]?
Answer: Its remaining binding at 1 µM is 88%.

Question: What about the remaining binding at 1 µM [13] of the same molecule?
Answer: The remaining binding at 1 µM was 100%.

Question: And the remaining binding at 1 µM [14]?
Answer: Its remaining binding at 1 µM is 96%.

Question: What about the remaining binding at 1 µM [15] of the same molecule?
Answer: The remaining binding at 1 µM was 90%.

Question: What about the remaining binding at 1 µM [16] of the same molecule?
Answer: The remaining binding at 1 µM was 66%.

Question: And the remaining binding at 1 µM [17]?
Answer: Its remaining binding at 1 µM is 100%.

Question: And the remaining binding at 1 µM [18]?
Answer: Its remaining binding at 1 µM is 90%.

Question: And the remaining binding at 1 µM [19]?
Answer: The remaining binding at 1 µM was 98%.

Question: And the remaining binding at 1 µM [20]?
Answer: Its remaining binding at 1 µM is 100%.

Question: What about the remaining binding at 1 µM [21] of the same molecule?
Answer: The remaining binding at 1 µM was 100%.

Question: What about the remaining binding at 1 µM [22] of the same molecule?
Answer: Its remaining binding at 1 µM is 68%.

Question: And the remaining binding at 1 µM [23]?
Answer: The remaining binding at 1 µM was 76%.

Question: What about the remaining binding at 1 µM [24] of the same molecule?
Answer: The remaining binding at 1 µM was 100%.

Question: And the remaining binding at 1 µM [25]?
Answer: The remaining binding at 1 µM was 100%.

Question: And the remaining binding at 1 µM [26]?
Answer: Its remaining binding at 1 µM is 100%.

Question: What about the remaining binding at 1 µM [27] of the same molecule?
Answer: The remaining binding at 1 µM was 71%.

Question: And the remaining binding at 1 µM [28]?
Answer: Its remaining binding at 1 µM is 90%.

Question: And the remaining binding at 1 µM [29]?
Answer: Its remaining binding at 1 µM is 92%.

Question: What about the remaining binding at 1 µM [30] of the same molecule?
Answer: The remaining binding at 1 µM was 100%.

Question: What about the remaining binding at 1 µM [31] of the same molecule?
Answer: The remaining binding at 1 µM was 100%.

Question: What about the remaining binding at 1 µM [32] of the same molecule?
Answer: The remaining binding at 1 µM was 80%.

Question: And the remaining binding at 1 µM [33]?
Answer: The remaining binding at 1 µM was 98%.

Question: What about the remaining binding at 1 µM [34] of the same molecule?
Answer: Its remaining binding at 1 µM is 93%.

Question: And the remaining binding at 1 µM [35]?
Answer: Its remaining binding at 1 µM is 93%.

Question: And the remaining binding at 1 µM [36]?
Answer: The remaining binding at 1 µM was 100%.

Question: And the remaining binding at 1 µM [37]?
Answer: Its remaining binding at 1 µM is 100%.

Question: And the “Ex vivo AHNAK methylation in tumors” value ([38]; 10 mg/kg po qd)?
Answer: Its value is “no significant effect”.

Question: What about the “Ex vivo AHNAK methylation in tumors” value ([38]; 100 mg/kg po qd) of the same molecule?
Answer: Its value is “most significant effects”.

Question: And the “Ex vivo AHNAK methylation in tumors” value ([38]; doses starting from 30 mg/kg po qd)?
Answer: Its value is “significantly reduced”.

Question: And the “Endogenous p53 methylation” value [39]?
Answer: Its value is “significant reduction of methylation”.
